Columns and labels:
[1] = tested on: Respiratory syncytial virus recombinant with luciferase (RSV-Luc5); assay: NHBE RSV-Luc5 384-well assay (EC50 RSVFLUC NHBE-384 v2), Example W; type: cell-based; details: human respiratory syncytial virus, 72 h, read-out: EC50 RSV FLUC NHBE 384 V2 (per Ex. W)
From the text: Example W: NHBE RSV-Luc5 384-Well Assay (EC50 RSVFLUC NHBE-384 v2)
Normal Human Bronchial Epithelial (NHBE) cells were purchased from Lonza (Walkersville, MD Cat #CC2540) and maintained in BEGM Bronchial Epithelial Cell Growth Medium BulletKit (Lonza CC-3170).
Cells were thawed, expanded, and were used for experiments at passage 2. Respiratory syncytial virus recombinant with luciferase (RSV-Luc5) (≥1×10^7 Infectious Units/mL (IU/mL) determined by TCID50) was purchased from Microbiologics (Saint Cloud, MN). Viral replication was determined in NHBE cells in the following manner.
Compounds are prepared in 100% DMSO in 384-well polypropylene plates (Greiner, Monroe, NC, Cat #784201) with 8 compounds per plate in grouped replicates of 4 at 10 serially diluted concentrations (1:3). The serially diluted compounds were transferred to low dead volume Echo plates (Labcyte, Sunnyvale, CA, Cat #LP-0200).
The test compounds were spotted to 384-well assay plates (Greiner, Monroe, NC, Cat #781091) at 200 nL per well using an Echo acoustic dispenser (Labcyte, Sunnyvale, CA). NHBE cells were harvested and suspended in BEGM Bronchial Epithelial Cell Growth Medium BulletKit and seeded to the pre-spotted assay plates at 5,000 cells per well in 30 μL. RSV-Luc5 virus was diluted in BEGM Bronchial Epithelial Cell Growth Medium BulletKit at 500,000 Infectious Units (IU) per mL and 10 μL per well was added to the assay plates containing cells and compounds, for an MOI of 1. The assay plates were incubated for 3 days at 37° C. and 5% CO2. At the end of incubation, One-Glo reagent (Promega, Madison, WI, Cat #E6120) was prepared. The assay plates and One-Glo reagent were equilibrated to room temperature for at least 15 minutes. 40 μL per well of One-Glo reagent was added and the plates were incubated at room temperature for 15 minutes before reading the luminescence signal on an EnVision multimode plate reader (Perkin Elmer, Waltham, MA). Remdesivir was used as positive control and DMSO was used as negative control. Values were normalized to the positive and negative controls (as 0% and 100% replication, respectively) and data was fitted using non-linear regression analysis by Gilead's dose response tool. The EC50 value for each compound was defined as the concentration reducing the viral replication by 50%.

[2] = GI S9 stability, human, Example Y; type: in vitro ADME; details: pooled intestinal S9 fractions; human intestinal S9, 1.0 mg/mL protein, 2 μM compound, pH 7.4; read-out: GIS9 Human T½ (per Ex. Y)
Procedure: Example Y: GI S9 Stability Data
Stock solutions of test compounds in dimethyl sulfoxide (DMSO) having a final concentration of 10 mM were prepared and used in all experiments. Sekisui XenoTech (Kansas City, KS) provided pooled intestinal S9 fractions. All other chemicals were purchased from Sigma-Aldrich (St. Louis, MO) or VWR (West Chester, PA). Internal Standard/Quench (IS/Q) used to stop reactions was 100 nM labetalol in (by volume) methanol (10%) and acetonitrile (90%).
Stability in Intestinal S9 Fractions: Duplicate aliquots of test compound or positive control substrate were added to S9 stock diluted with phosphate buffered saline (137 mM NaCl, 2.7 mM KCl, 10 mM phosphate buffer), pH 7.4, to obtain a protein concentration of 1.0 mg/mL. The metabolic reactions were initiated by the addition of the substrates to the S9 reaction mixture to a final concentration of 2 μM. At 0, 10, 20, 30, 60 and 120 min, 25 μL aliquots of the reaction mixture were transferred to plates containing 225 μl of IS/Q solution. After quenching, the plates were centrifuged at 3000×g for 30 minutes. 150 μL aliquots of each supernatant were dried down then reconstituted with 300 μL water. Aliquots (10 μL) of the prepared samples were analyzed on a Thermo Q-Exactive mass spectrometer as described below.
Liquid Chromatography—Mass Spectrometry: Quantification of test compounds and control substrate was performed by analyte/internal standard peak area ratio (PAR) values measured on a Thermo Q-Exactive mass spectrometer coupled to a Dionex UltiMate 3000 HPLC with a Leap Technologies HTC PAL autosampler. The column used for analysis was a Waters Acquity BEH C18 (1.7 μm particle size, 2.1×50 mm). Mobile phase A consisted of 0.1% (v/v) formic acid in water. Mobile phase B consisted of 0.1% (v/v) formic acid in acetonitrile. Elution of analytes was achieved by a series of linear gradients varying the proportions of A and B. The mass spectrometer was calibrated on a weekly basis and mass tolerance of 5 ppm was used.
Metabolic stabilities in S9 fractions were determined by measuring the rates of disappearance of test compound and positive control substrate.
Data (% of substrate remaining) were plotted on a semi-log scale and fitted using an exponential decline model:
Ct=C0×e^−ln2/T1/2×t • Where Ct—% of substrate remaining at time=t; C0—% of substrate remaining at time=0; t—time; T1/2—half-life. • The Half-life (T1/2) is determined by the following equation: […]
Assuming a first-order reaction, the slope (k) is extrapolated from the aforementioned plotted data.

SMILES | EC50 [1] [µM] | half-life at 2 μM [2] [min]
N#C[C@]1(COC(=O)OC2CCCCC2)O[C@@H](c2ccc3c(N)ncnn23)[C@H](O)[C@@H]1O [Compound 21, ((2R,3S,4R,5S)-5-(4-aminopyrrolo[2,1-f][1,2,4]triazin-7-yl)-2-cyano-3,4-dihydroxytetrahydrofuran-2-yl)methyl cyclohexyl carbonate] | 7 | 44
CCOC(=O)OC[C@@]1(C#N)O[C@@H](c2ccc3c(N)ncnn23)[C@H](O)[C@@H]1O [Compound 22, ((2R,3S,4R,5S)-5-(4-aminopyrrolo[2,1-f][1,2,4]triazin-7-yl)-2-cyano-3,4-dihydroxytetrahydrofuran-2-yl)methyl ethyl carbonate] | 6.62 | 55
N#C[C@]1(COC(=O)OC2CC2)O[C@@H](c2ccc3c(N)ncnn23)[C@H](O)[C@@H]1O [Compound 23, ((2R,3S,4R,5S)-5-(4-aminopyrrolo[2,1-f][1,2,4]triazin-7-yl)-2-cyano-3,4-dihydroxytetrahydrofuran-2-yl)methyl cyclopropyl carbonate] | 7.79 | 19
N#C[C@]1(COC(=O)O[C@@H]2CCOC2)O[C@@H](c2ccc3c(N)ncnn23)[C@H](O)[C@@H]1O [Compound 24, ((2R,3S,4R,5S)-5-(4-aminopyrrolo[2,1-f][1,2,4]triazin-7-yl)-2-cyano-3,4-dihydroxytetrahydrofuran-2-yl)methyl ((R)-tetrahydrofuran-3-yl) carbonate] | 7.33 | 178
CC[C@H](C)COC(=O)OC[C@@]1(C#N)O[C@@H](c2ccc3c(N)ncnn23)[C@H](O)[C@@H]1O [Compound 28, ((2R,3S,4R,5S)-5-(4-aminopyrrolo[2,1-f][1,2,4]triazin-7-yl)-2-cyano-3,4-dihydroxytetrahydrofuran-2-yl)methyl ((S)-2-methylbutyl) carbonate] | 9.4 | 18
N#C[C@]1(COC(=O)OCc2ccccc2)O[C@@H](c2ccc3c(N)ncnn23)[C@H](O)[C@@H]1O [Compound 29, ((2R,3S,4R,5S)-5-(4-aminopyrrolo[2,1-f][1,2,4]triazin-7-yl)-2-cyano-3,4-dihydroxytetrahydrofuran-2-yl)methyl benzyl carbonate] | 10.9 | 15
N#C[C@]1(COC(=O)OCC2CCCC2)O[C@@H](c2ccc3c(N)ncnn23)[C@H](O)[C@@H]1O [Compound 30, ((2R,3S,4R,5S)-5-(4-aminopyrrolo[2,1-f][1,2,4]triazin-7-yl)-2-cyano-3,4-dihydroxytetrahydrofuran-2-yl)methyl (cyclopentylmethyl) carbonate] | 7.54 | 15
CCC(CC)COC(=O)OC[C@@]1(C#N)O[C@@H](c2ccc3c(N)ncnn23)[C@H](O)[C@@H]1O [Compound 31, ((2R,3S,4R,5S)-5-(4-aminopyrrolo[2,1-f][1,2,4]triazin-7-yl)-2-cyano-3,4-dihydroxytetrahydrofuran-2-yl)methyl (2-ethylbutyl) carbonate] | 8.65 | 18
N#C[C@]1(COC(=O)OCC2CC2)O[C@@H](c2ccc3c(N)ncnn23)[C@H](O)[C@@H]1O [Compound 32, ((2R,3S,4R,5S)-5-(4-aminopyrrolo[2,1-f][1,2,4]triazin-7-yl)-2-cyano-3,4-dihydroxytetrahydrofuran-2-yl)methyl (cyclopropylmethyl) carbonate] | 7.12 | 33
N#C[C@]1(COC(=O)O[C@H]2CCOC2)O[C@@H](c2ccc3c(N)ncnn23)[C@H](O)[C@@H]1O [Compound 33, ((2R,3S,4R,5S)-5-(4-aminopyrrolo[2,1-f][1,2,4]triazin-7-yl)-2-cyano-3,4-dihydroxytetrahydrofuran-2-yl)methyl ((S)-tetrahydrofuran-3-yl) carbonate] | 8.01 | 250
CCCOCCOC(=O)OC[C@@]1(C#N)O[C@@H](c2ccc3c(N)ncnn23)[C@H](O)[C@@H]1O [Compound 34, ((2R,3S,4R,5S)-5-(4-aminopyrrolo[2,1-f][1,2,4]triazin-7-yl)-2-cyano-3,4-dihydroxytetrahydrofuran-2-yl)methyl (2-propoxyethyl) carbonate] | 6.39 | 108
CC(C)(C)CCOC(=O)OC[C@@]1(C#N)O[C@@H](c2ccc3c(N)ncnn23)[C@H](O)[C@@H]1O [Compound 35, ((2R,3S,4R,5S)-5-(4-aminopyrrolo[2,1-f][1,2,4]triazin-7-yl)-2-cyano-3,4-dihydroxytetrahydrofuran-2-yl)methyl (3,3-dimethylbutyl) carbonate] | 5.78 | 19
N#C[C@]1(COC(=O)OC2CC3(CCC3)C2)O[C@@H](c2ccc3c(N)ncnn23)[C@H](O)[C@@H]1O [Compound 36, ((2R,3S,4R,5S)-5-(4-aminopyrrolo[2,1-f][1,2,4]triazin-7-yl)-2-cyano-3,4-dihydroxytetrahydrofuran-2-yl)methyl spiro[3.3]heptan-2-yl carbonate] | 8.42 | 14
CC1(C)CC(OC(=O)OC[C@@]2(C#N)O[C@@H](c3ccc4c(N)ncnn34)[C@H](O)[C@@H]2O)C1 [Compound 37, ((2R,3S,4R,5S)-5-(4-aminopyrrolo[2,1-f][1,2,4]triazin-7-yl)-2-cyano-3,4-dihydroxytetrahydrofuran-2-yl)methyl (3,3-dimethylcyclobutyl) carbonate] | 7.44 | 29
COC[C@@H](C)OC(=O)OC[C@@]1(C#N)O[C@@H](c2ccc3c(N)ncnn23)[C@H](O)[C@@H]1O [Compound 38, ((2R,3S,4R,5S)-5-(4-aminopyrrolo[2,1-f][1,2,4]triazin-7-yl)-2-cyano-3,4-dihydroxytetrahydrofuran-2-yl)methyl ((R)-1-methoxypropan-2-yl) carbonate] | 7.61 | 292
N#C[C@]1(COC(=O)O[C@@H]2C[C@@H]3C[C@@H]3C2)O[C@@H](c2ccc3c(N)ncnn23)[C@H](O)[C@@H]1O [Compound 39, ((2R,3S,4R,5S)-5-(4-aminopyrrolo[2,1-f][1,2,4]triazin-7-yl)-2-cyano-3,4-dihydroxytetrahydrofuran-2-yl)methyl ((1R,3r,5S)-bicyclo[3.1.0]hexan-3-yl) carbonate] | 7.84 | 27
C[C@H]1CC[C@H](OC(=O)OC[C@@]2(C#N)O[C@@H](c3ccc4c(N)ncnn34)[C@H](O)[C@@H]2O)CC1 [Compound 40, ((2R,3S,4R,5S)-5-(4-aminopyrrolo[2,1-f][1,2,4]triazin-7-yl)-2-cyano-3,4-dihydroxytetrahydrofuran-2-yl)methyl ((1r,4R)-4-methylcyclohexyl) carbonate] | 7.42 | 36

Reference: patent publication US20230382940A1, “ANTIVIRAL COMPOUNDS AND METHODS OF MAKING AND USING THE SAME” (Gilead Sciences, Inc., priority 2022, published 2023)
